We go through 13 compounds from ChEMBL document CHEMBL1128033, “Design and synthesis of new leads for PKC bisubstrate inhibitors” (Bioorg Med Chem Lett, 1994).

Each structure is given as a SMILES string.

Assay [1] concerns the target cAMP-dependent protein kinase (PKA) (Homo sapiens, UniProt P22694+P17612+P22612). As to the kind of experiment: Inhibition of c-AMP dependent kinase (PKA) using histone II A protein. Type of assay: protein assay.
The next assay concerns the target Protein kinase C (PKC). Description: Inhibition of protein kinase C (PKC) using histone III S protein. In kind it is protein assay.

As to `NCCCCCCNC1=C(c2cc3ccccc3[nH]2)C(=O)NC1=O`, the IC50 is 50 µM in assay [1] and 40 µM against Protein kinase C (PKC).
Take `C[C@H]1CNCCN1S(=O)(=O)c1cccc2cnccc12`: the IC50 on Protein kinase C (PKC) was 6 µM.
As to `NC(Cc1ccccc1)C(=O)NCCNCCCCCNC1=C(c2cc3ccccc3[nH]2)C(=O)NC1=O` (stereo not drawn), the results for the IC50 (in assay [1]; against Protein kinase C (PKC)) were 120 µM and 95 µM, respectively.
For `NCCCCCNC1=C(c2cc3ccccc3[nH]2)C(=O)NC1=O` the same measures were 300 µM and 8 µM.
Take `NC(Cc1ccccc1)C(=O)NCCCCCNC1=C(c2cc3ccccc3[nH]2)C(=O)NC1=O` (stereo not drawn): on Protein kinase C (PKC), the concentration for half-maximal inhibition (IC50) amounted to 120 µM.
In the case of `NCCCNCCCNC1=C(c2cc3ccccc3[nH]2)C(=O)NC1=O`, the IC50 worked out at 390 µM in assay [1] and 100 µM against Protein kinase C (PKC).
On the same counts, the results for `NC(CCC(=O)O)C(=O)NCCCCCNC1=C(c2cc3ccccc3[nH]2)C(=O)NC1=O` (stereo not drawn) are 390 µM and 105 µM.
On the same counts, the results for `NCCNC1=C(c2cc3ccccc3[nH]2)C(=O)NC1=O` are 100 µM and 90 µM.
On the same counts, the results for `NCCNCCCCCNC1=C(c2cc3ccccc3[nH]2)C(=O)NC1=O` are above 500 µM and 110 µM.
`NCCCCCCCNC1=C(c2cc3ccccc3[nH]2)C(=O)NC1=O`: the IC50 in assay [1] is 150 µM; against Protein kinase C (PKC), 5 µM.
Turning to `NCCNCCNC1=C(c2cc3ccccc3[nH]2)C(=O)NC1=O`, the IC50 in assay [1] came out at 310 µM; against Protein kinase C (PKC), 120 µM.
For `NC(N)=NCCCC(N)C(=O)NCCCCCNC1=C(c2cc3ccccc3[nH]2)C(=O)NC1=O` (stereo not drawn), at Protein kinase C (PKC), the IC50 was determined as 60 µM.
Turning to `NC(N)=NCCCC(N)C(=O)NCCNCCCCCNC1=C(c2cc3ccccc3[nH]2)C(=O)NC1=O` (stereo not drawn), the half-maximal inhibitory concentration (IC50) in assay [1] was found to be 210 µM; on Protein kinase C (PKC), 8 µM.
